The record followed here is US10577362B2, “Substituted 2, 4-diamino-quinoline derivatives for use in the treatment of proliferative diseases” (GENOSCIENCE PHARMA, priority 2016, dated 2020).

In general, viability refers to a read-out of living cells in per cent, often relative to untreated cells. By EC50 is commonly meant the concentration at which the effect is half-maximal.

Assay [1] deals with A375 (malignant melanoma) cell line. The assay can be described thus: CellTiter-Glo luminescent cell viability assay, A375. The format is cell-based, human. The note with it: Homo sapiens, A-375; for viability at 4 µM: A375, compound at 4 μM; for viability at 4 µM / viability at 10 µM: 72 h; for viability at 10 µM: A375, compound at 10 μM; for EC50: A375 cell line, 72 h incubation, CellTiter-Glo, read-out: EC50, growth inhibition of A375. The method, boiled down:
(§1)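 Adherent lines plated overnight, MOLM-14 (suspension) 1 h before dosing, in medium with 10% FBS at 37 °C, 5% CO2. Compounds added at varying concentrations for 72 h; CellTiter-Glo luminescence read, EC50 as dose reducing signal to 50% of diluent-treated cells, at least duplicate points.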
In general terms: Cellular ATP, detected with luciferase, serves as a proxy for viable cell number.

The subject of assay [2] is HepG2 (hepatocellular carcinoma) cell line. The assay can be described thus: CellTiter-Glo luminescent cell viability assay, HepG2. The format is cell-based, human. Particulars: Homo sapiens; for viability at 4 µM / viability at 10 µM: HepG2, HepG, 72 h; for viability at 4 µM: compound at 4 μM; for viability at 10 µM: compound at 10 μM; for EC50: HepG2 cell line, 72 h incubation, CellTiter-Glo, read-out: EC50, growth inhibition of HepG2. The method, boiled down:
as §1

Assay [3] has as its system HCT-116 (colorectal carcinoma) cell line. The assay can be described thus: CellTiter-Glo luminescent cell viability assay, HCT-116. The format is cell-based, human. Particulars: Homo sapiens; for viability at 4 µM: HCT-116, compound at 4 μM; for viability at 4 µM / viability at 10 µM: 72 h; for viability at 10 µM: HCT-116, compound at 10 μM; for EC50: HCT-116 cell line, 72 h incubation, CellTiter-Glo, read-out: EC50, growth inhibition of HCT-116. In short, it runs like this:
as §1

Assay [4] deals with PANC-1 (prancreatic carcinoma) cell line. In words: CellTiter-Glo luminescent cell viability assay, PANC-1. The format is cell-based. Particulars: Homo sapiens; for viability at 4 µM: PANC-1, 4 μM; for viability at 4 µM / viability at 10 µM: 72 h, % of signal of diluent-treated cultures; for viability at 10 µM: PANC-1, 10 μM; for EC50: PANC-1 cell line, 72 h incubation, CellTiter-Glo, read-out: EC50 (growth inhibition assay of PANC-1 cell line). The method, then:
All cell lines were maintained in medium containing 1% penicillin-streptomycin (Dutscher, P06-07100) and 10% Fetal Bovine Serum (Hyclone Dutscher, RZK35922) cultured at 37° C. with 5% CO2. HepG2 (hepatocellular carcinoma), cell line was cultured in Dulbecco's modified Eagle's medium low glucose (Gibco, 21885025), Huh7 (hepatocellular carcinoma), HCT-116 (colorectal carcinoma), PANC-1 (prancreatic carcinoma) and A375 (malignant melanoma) cell lines were cultured in Dulbecco's modified Eagle's medium (Dutscher, L0103). MOLM-14 (acute myeloid leukemia) cell line was maintained in MEM alpha medium (Gibco, 22561-021). 786-0 (renal adenocarcinoma) cell lines were maintained in RPMI 1640 medium (Dutscher, L0498).
Cell viability was measured using the CellTiter-Glo® luminescent cell viability assay as described by the manufacturer (Promega, Ref G7571) using an Infinite F200Pro luminometer (Tecan). Briefly, for adherent cells, cells were plated onto 96-well plates (white with clear bottom) in 90 μL of media per well and were allowed to grow overnight before the assay. For cells growing in suspension, cells were plated onto 96-well plates 1 h before the assay.
Compounds were resuspended in H2O or DMSO and added at different concentrations to each well, and cell cultures were incubated for 72 h. Each diluent (H2O or DMSO) were used as a control, and all compounds were tested in a constant percentage of H2O or DMSO. On the day of the reading, plates are equilibrated 30 min at room temperature before the addition of 100 μL of CellTiter-Glo® and luminescence was measured using an Infinite F200Pro (Tecan). % cell viability were expressed as a percentage of the signal obtained for cell cultures treated with diluent. EC50 values were determined as the dose of compound required to reduce luminescent values to 50% of the signal obtained for cell cultures treated with diluent. The experimental data were analyzed using a computer program, Graphpad Prism v5 (GraphPad Software, Inc. La Jolla, Calif.). All points were at least done in duplicate.

For assay [5], the system named is 786-O (renal adenocarcinoma) cell line. The assay can be described thus: CellTiter-Glo luminescent cell viability assay, 786-O. Format: cell-based, human. Particulars: Homo sapiens, 786-0; for EC50: 786-O cell line, 72 h incubation, CellTiter-Glo, read-out: EC50, growth inhibition of 786-O; for viability at 4 µM / viability at 10 µM: 786-O, 72 h; for viability at 4 µM: compound at 4 μM; for viability at 10 µM: compound at 10 μM. The method, boiled down:
as §1

Assay [6] deals with Huh7 (hepatocellular carcinoma) cell line. In words: CellTiter-Glo luminescent cell viability assay, Huh7. The note with it: Homo sapiens, Huh-7; for viability at 4 µM: Huh7, compound at 4 μM; for viability at 4 µM / viability at 10 µM: 72 h; for viability at 10 µM: Huh7, compound at 10 μM; for EC50: Huh7 cell line, 72 h incubation, CellTiter-Glo, read-out: EC50, growth inhibition of Huh7. Format: cell-based, human. In short, it runs like this:
as §1

The test system of assay [7] is MOLM-14 (acute myeloid leukemia) cell line. The assay can be described thus: CellTiter-Glo luminescent cell viability assay, MOLM-14. Format: cell-based, human. Particulars: Homo sapiens; for viability at 4 µM: MOLM-14, compound at 4 μM; for viability at 4 µM / viability at 10 µM: 72 h; for viability at 10 µM: MOLM-14, compound at 10 μM; for EC50: MOLM-14 cell line, 72 h incubation, CellTiter-Glo, read-out: EC50, growth inhibition of MOLM-14. In short, it runs like this:
as §1

As for `Cc1cc(Nc2nc3ccccc3c(N3CCC(NC(C)(C)C)CC3)c2C#N)ccc1F` [Compound 3250CN, 2-(3-methyl-4-fluorophenylamino)-3-cyano-4-[4-(tert-butylamino)piperidin-1-yl]quinoline], the viability at 4 µM is 0.7% in assay [1]; 71% in assay [2]; 0.2% in assay [3]; 94.7% in assay [4]; 30.3% in assay [5]; 67% in assay [6]. In assay [7], the viability at 4 µM amounted to 87.5%. Besides, the viability at 10 µM in assay [1] is 0.3%; in assay [2], 0.5%; in assay [3] it was 0.1%; in assay [4] it was 13.1%; in assay [5], 0.4%; in assay [6], 0.5%. Moreover, in assay [7], the viability at 10 µM was determined as 0.6%. The EC50 in assay [1] is 0.5 to 5 µM; in assay [2], 0.5 to 5 µM; in assay [3], 0.5 to 5 µM; in assay [4] it was 5 to 10 µM; in assay [5], 0.5 to 5 µM; in assay [6] it was 5 to 10 µM. Moreover, the EC50 in assay [7] was in the range of 5 to 10 µM.

On to `N#Cc1c(NCc2ccc(Cl)cc2)nc2ccccc2c1N1CCC(NC2CCOCC2)C1` (centres unmarked) [Compound 136CN, 2-(4-chloro-benzylamino)-3-cyano-4-{3-[(tetrahydro-2H-pyran-4-yl)-amino]pyrroli-din-1-yl}quinoline], for which the viability at 4 µM in assay [1] turned out to be 110%; in assay [2], 88.6%; in assay [3] it was 73.3%; in assay [4] it was 91.7%; in assay [5], 75.7%; in assay [6] it was 87.6%. Further, the viability at 4 µM in assay [7] was 95.7%. In addition, the viability at 10 µM in assay [1] turned out to be 17.4%; in assay [2], 44.1%; in assay [3], 17.4%; in assay [4], 63.6%; in assay [5], 21.8%; in assay [6] it was 50.5%. Also, the viability at 10 µM in assay [7] was 32%.

As to `CC(C)(C)NC1CCN(c2c(C#N)c(NCc3ccc4c(c3)OCO4)nc3ccccc23)CC1` [Compound 3300CN, 2-[(benzo[d][1,3]dioxol-5-ylmethyl)amino]-3-cyano-4-[4-(tert-butylamino)piperidin-1-yl]quinoline], the viability at 4 µM was 47.2% in assay [1]; 62.7% in assay [2]; 13.9% in assay [3]; 78% in assay [4]; 60% in assay [5]; 63.2% in assay [6]. Besides, the viability at 4 µM in assay [7] worked out at 70.2%. In addition, the viability at 10 µM came out at 0.4% in assay [1]; 0.5% in assay [2]; 0.2% in assay [3]; 27.4% in assay [4]; 0.8% in assay [5]; 0.5% in assay [6]. Moreover, the viability at 10 µM in assay [7] stood at 0.5%. For the same molecule, the EC50 in assay [1] was 0.5 to 5 µM; in assay [2], 5 to 10 µM; in assay [3], 0.5 to 5 µM; in assay [4], 5 to 10 µM; in assay [5], 5 to 10 µM; in assay [6], 5 to 10 µM. For the same molecule, the EC50 in assay [7] is 5 to 10 µM.
